In ChEMBL document CHEMBL1201862, “PubChem BioAssay data set” (2004) one finds EC50, IC50 and AC50 data, which are given here for five compounds.

Assay [1] concerns the target Peroxisome proliferator-activated receptor gamma/Nuclear receptor coactivator 1 (Homo sapiens, UniProt P37231). The assay is described as follows: TR-FRET dose response biochemical High Throughput Screening assay for agonists of the steroid receptor coactivator 1 (SRC-1) recruitment by the peroxisome proliferator-activated receptor gamma (PPAR gamma): non-selective agonists. [Related pubchem assays (depositor defined):AID1300, AID1808, AID504735, AID631]. Type of assay: protein assay. In general terms: Time-resolved FRET reads energy transfer from a long-lived donor to a nearby acceptor.

Assay [2] addresses Peroxisome proliferator-activated receptor gamma/Nuclear receptor coactivator 3 (Homo sapiens, UniProt P37231). Nature of the assay: TR-FRET dose response biochemical High Throughput Screening assay for agonists of the steroid receptor coactivator 3 (SRC-3) recruitment by the peroxisome proliferator-activated receptor gamma (PPAR gamma): non-selective agonists. [Related pubchem assays: 1301 (Confirmation screen.), 1048 (Primary screen.)]. The assay is classed as functional.

Assay [3] addresses Peroxisome proliferator-activated receptor gamma/Nuclear receptor coactivator 2 (Homo sapiens, UniProt P37231). Nature of the assay: TR-FRET dose response biochemical High Throughput Screening assay for agonists of the steroid receptor coactivator 2 (SRC-2) recruitment by the peroxisome proliferator-activated receptor gamma (PPAR gamma): non-selective agonists. [Related pubchem assays: 1297, 1032 ]. Type of assay: functional.

Assay [4] concerns the target T1, G-protein coupled receptor 35 (Homo sapiens, UniProt Q9HC97). Nature of the assay: SAR analysis of Agonists of the GPR35 Receptor using an Image-Based Assay - Set 4. [Related pubchem assays (depositor defined):AID2013, AID2026]. The assay is classed as functional.
The target of assay [5] is T2, Cannabinoid receptor 1 (Homo sapiens, UniProt P21554). The assay is described as follows: SAR analysis of agonists of the Cannabinoid Receptor 1 using an Image-Based Assay - Set 4. [Related pubchem assays (depositor defined):AID2013, AID2026]. The assay is classed as functional.
The target of assay [6] is T1, G-protein coupled receptor 35. The assay is described as follows: SAR analysis of Antagonists of the GPR35 Receptor using an Image-Based Assay - Set 6. [Related pubchem assays (depositor defined):AID2013, AID2026]. Type of assay: functional.
The target in assay [7] is T2, Cannabinoid receptor 1. The assay is described as follows: SAR analysis of antagonists of the Cannabinoid Receptor 1 using an Image-Based Assay - Set 4. [Related pubchem assays (depositor defined):AID2013, AID2026]. Type of assay: functional.
The target in assay [8] is G-protein coupled receptor 55 (Homo sapiens, UniProt Q9Y2T6). The assay is described as follows: SAR Analysis of Selective Antagonists of GPR55 using an Image-Based Assay - Set 4. [Related pubchem assays (depositor defined):AID2013, AID2026]. Type of assay: functional.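 Note: antagonism of response to 5 µM lysophosphatidylinositol agonist.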
Assay [9] deals with T3, Cannabinoid receptor 2 (Homo sapiens, UniProt P34972). The assay is described as follows: SAR analysis of antagonists of the Cannabinoid Receptor 2 using an Image-Based Assay - Set 3. [Related pubchem assays (depositor defined):AID2013, AID2026]. The assay is classed as functional.
The target of assay [10] is T3, Cannabinoid receptor 2. Nature of the assay: SAR analysis of agonists of the Cannabinoid Receptor 2 using an Image-Based Assay - Set 3. [Related pubchem assays (depositor defined):AID2013, AID2026]. Type of assay: functional.
Assay [11] deals with T4, Probable nicotinate-nucleotide adenylyltransferase (Staphylococcus aureus (strain N315), UniProt P65502). The assay is classed as functional, Staphylococcus aureus subsp. aureus N315.
The target in assay [12] is T4, Probable nicotinate-nucleotide adenylyltransferase. The assay is classed as functional, Staphylococcus aureus subsp. aureus N315. The conditions noted are these: read-out: IC50_Mean.
Assay [13] has as its target Voltage-gated inwardly rectifying potassium channel KCNH2 (Homo sapiens, UniProt Q12809). Nature of the assay: concentration-dependent hERG rescue from blockers – cell-based, thallium flux, dose response (AID 2121). The assay is classed as ADME. On the technique in general: Block of hERG is tested as a sign of cardiac risk.
The target in assay [14] is Sphingosine 1-phosphate receptor 1 (Homo sapiens, UniProt P21453). The assay is described as follows: Fluorescence-based counterscreen assay for S1P4 agonists: Cell-based dose response high throughput screening assay to identify agonists of the Sphingosine 1-Phosphate Receptor 1 (S1P1). [Related pubchem assays (depositor defined):AID1509, AID1523, AID1801, AID463107, AID463118, AID463119, AID463122, AID463123, AID463129, AID463225, AID504400, AID504460]. Type of assay: functional.

In assay [15] the test system is BJ. Nature of the assay: BJ-TERT fibroblast viability loss – cell-based, RAS-independent, luminescence, dose response (AID 1933). The assay is classed as functional. The conditions noted are these: Homo sapiens.
Assay [16] has as its system BJ. Nature of the assay: cells. Type of assay: functional, cell-based. Conditions: Homo sapiens.
Assay [17] addresses Sphingosine 1-phosphate receptor 4 (Homo sapiens, UniProt O95977). Nature of the assay: Fluorescence dose response cell-based high throughput screening assay for agonists of the Sphingosine 1-Phosphate Receptor 4 (S1P4). [Related pubchem assays: 1509 (Primary screen.), 1523 (Confirmation screen in triplicates.)]. Type of assay: functional.
Assay [18] concerns BJ. Nature of the assay: BJ-TERT-LT-ST fibroblast viability loss – cell-based, RAS-independent, luminescence, dose response (AID 1935).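 Note: BJ fibroblasts immortalized with TERT plus LT and ST oncogenes.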 The assay is classed as functional. The conditions noted are these: Homo sapiens.
Assay [19] is described as follows: DRD fibroblast viability loss – cell-based, non-viral oncogenic, luminescence, dose response (AID 1934). Type of assay: functional. The conditions noted are these: Homo sapiens.
Assay [20] can be described thus: HEK-293T viability loss after treatment – luminescence, T-cell screen hits, cytotoxicity control for TCR NF-kB inhibitor project, dose response (AID 489026).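 Note: cells exposed to compound about 14 hours before the viability readout.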 Type of assay: functional, cell-based.
Assay [21] has as its system BJ. Nature of the assay: growth inhibition of engineered Ras-driven BJ cells – cell-based, alamar blue fluorescence, cherrypicked samples, dose response (AID 2631).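 Note: confirmatory dose-response assay in RAS-dependent BJ fibroblasts engineered with TERT, LT and ST, with cytotoxicity read by fluorescence.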 Type of assay: functional. Conditions: Homo sapiens.
For assay [22], the target named is T5, Polyadenylate-binding protein 1 (Homo sapiens, UniProt P11940). The assay is described as follows: MLLE binding blockers, Cy5 peptide tracer – biochemical, fluorescence polarization, Cy5-PAM2 peptide, secondary, miRNA deadenylation inhibitor project, dose response (AID 602260). The assay is classed as functional. Conditions: read-out: IC50_Mean. (Fluorescence polarisation rises when a labelled molecule tumbles more slowly, as on binding a larger partner.)

Assay [23] deals with T5, Polyadenylate-binding protein 1. The assay is described as follows: MLLE domain peptide-binding blockers, IC50 – biochemical, fluorescence polarization, FITC-PAM2 peptide, dose response (AID 602259). Type of assay: functional. Conditions: read-out: IC50_Mean.
Assay [24] in a line: cytotoxicity toward MDA-MB-231 breast cancer cells – cell-based, CellTiter-Glo luminescence, cherry-pick, cytotoxicity control for RAD54 inhibitor project, dose response (AID 651692). The assay is classed as functional.
Assay [25] deals with T6, DNA repair and recombination protein RAD54-like (Homo sapiens, UniProt Q92698).
T6 sequence (Q92698 whole entry): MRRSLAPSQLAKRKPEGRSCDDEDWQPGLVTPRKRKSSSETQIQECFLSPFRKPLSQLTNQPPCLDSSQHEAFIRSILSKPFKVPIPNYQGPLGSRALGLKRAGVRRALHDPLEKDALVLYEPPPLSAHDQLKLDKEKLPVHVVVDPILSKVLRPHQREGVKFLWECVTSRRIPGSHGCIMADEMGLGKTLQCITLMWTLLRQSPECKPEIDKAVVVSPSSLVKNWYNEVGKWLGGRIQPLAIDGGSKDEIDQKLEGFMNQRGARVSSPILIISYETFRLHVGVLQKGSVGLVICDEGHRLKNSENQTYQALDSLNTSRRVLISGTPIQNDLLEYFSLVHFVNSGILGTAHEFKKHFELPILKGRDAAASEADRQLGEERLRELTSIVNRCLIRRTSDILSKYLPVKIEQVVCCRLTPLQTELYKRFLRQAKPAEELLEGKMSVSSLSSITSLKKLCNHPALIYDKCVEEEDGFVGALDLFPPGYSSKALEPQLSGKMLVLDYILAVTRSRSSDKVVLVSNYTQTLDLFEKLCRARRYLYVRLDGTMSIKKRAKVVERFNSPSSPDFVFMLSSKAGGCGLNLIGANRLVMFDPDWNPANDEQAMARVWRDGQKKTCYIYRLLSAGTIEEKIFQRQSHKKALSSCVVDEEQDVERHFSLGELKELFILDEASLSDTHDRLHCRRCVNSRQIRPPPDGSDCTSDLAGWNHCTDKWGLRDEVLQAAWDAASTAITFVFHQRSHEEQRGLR
The assay is described as follows: RAD54 Holliday junction migration blockers – biochemical, fluorescence, cherry-picked samples, dose series, confirmation (AID 651657). The assay is classed as functional.

Assay [26] addresses T7, DNA repair protein RAD52 homolog (Homo sapiens, UniProt P43351).
T7 sequence (P43351 whole entry): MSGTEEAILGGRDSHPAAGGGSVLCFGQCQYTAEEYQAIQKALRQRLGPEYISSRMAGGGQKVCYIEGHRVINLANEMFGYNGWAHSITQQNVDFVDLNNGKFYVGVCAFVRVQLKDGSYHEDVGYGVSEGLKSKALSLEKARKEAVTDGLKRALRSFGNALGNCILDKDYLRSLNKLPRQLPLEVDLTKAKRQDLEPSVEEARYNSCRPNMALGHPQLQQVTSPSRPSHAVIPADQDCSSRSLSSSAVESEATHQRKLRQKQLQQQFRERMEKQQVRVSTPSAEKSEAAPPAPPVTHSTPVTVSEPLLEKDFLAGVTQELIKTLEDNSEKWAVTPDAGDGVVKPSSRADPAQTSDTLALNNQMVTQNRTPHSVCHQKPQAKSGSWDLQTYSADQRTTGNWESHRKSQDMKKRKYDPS
The assay is classed as functional, biochemical.

In the next assay the target is Paired box protein Pax-8 (Homo sapiens, UniProt Q06710). Nature of the assay: PAX8 transcriptional activity inhibition in RMG-I – RMG-I cells, luciferase, cherry-pick, dose response (AID 687027).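 Note: luciferase reporter driven by Pax8 target thyroperoxidase promoter measured by SteadyGlo luminescence.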 The assay is classed as functional, cell-based.
Assay [27] can be described thus: Luminescence-based cell-based high throughput dose response assay to identify activators of the DAF-12 from the parasite S. stercoralis (ssDAF-12). Type of assay: functional.

SMILES strings stand for the structures. Active and inactive are the calls of the source.

T2 sequence (P21554 whole entry): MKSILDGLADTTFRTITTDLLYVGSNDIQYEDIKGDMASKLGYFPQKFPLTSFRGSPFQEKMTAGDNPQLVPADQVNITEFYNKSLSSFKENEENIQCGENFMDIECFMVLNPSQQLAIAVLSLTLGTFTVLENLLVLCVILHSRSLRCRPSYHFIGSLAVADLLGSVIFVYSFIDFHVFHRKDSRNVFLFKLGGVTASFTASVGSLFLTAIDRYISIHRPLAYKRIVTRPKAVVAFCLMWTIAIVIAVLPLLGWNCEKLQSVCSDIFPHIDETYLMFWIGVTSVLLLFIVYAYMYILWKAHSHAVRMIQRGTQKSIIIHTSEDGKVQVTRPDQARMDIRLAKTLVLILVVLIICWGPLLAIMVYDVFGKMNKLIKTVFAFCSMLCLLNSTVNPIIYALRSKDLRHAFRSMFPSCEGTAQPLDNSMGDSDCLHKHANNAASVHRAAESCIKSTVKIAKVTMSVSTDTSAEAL
T1 sequence (Q9HC97 whole entry): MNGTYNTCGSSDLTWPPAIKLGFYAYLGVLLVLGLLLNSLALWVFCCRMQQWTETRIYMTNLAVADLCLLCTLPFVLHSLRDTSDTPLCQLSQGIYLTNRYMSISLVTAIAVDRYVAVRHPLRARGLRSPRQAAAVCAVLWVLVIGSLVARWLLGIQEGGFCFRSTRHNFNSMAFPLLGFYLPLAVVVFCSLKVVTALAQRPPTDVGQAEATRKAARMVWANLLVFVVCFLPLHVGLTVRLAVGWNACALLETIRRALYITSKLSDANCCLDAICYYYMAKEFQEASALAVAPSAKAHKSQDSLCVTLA
T3 sequence (P34972 whole entry): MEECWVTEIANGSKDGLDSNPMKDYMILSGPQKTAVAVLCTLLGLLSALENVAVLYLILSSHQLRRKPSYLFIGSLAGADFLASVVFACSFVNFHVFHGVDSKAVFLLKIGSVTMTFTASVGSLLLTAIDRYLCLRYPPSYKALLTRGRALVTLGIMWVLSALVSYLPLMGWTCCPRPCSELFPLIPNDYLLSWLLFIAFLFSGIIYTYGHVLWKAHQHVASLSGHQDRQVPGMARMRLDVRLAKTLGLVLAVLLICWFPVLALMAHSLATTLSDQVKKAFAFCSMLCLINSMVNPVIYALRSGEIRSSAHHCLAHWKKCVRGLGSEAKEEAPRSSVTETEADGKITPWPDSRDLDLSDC
Peroxisome proliferator-activated receptor gamma/Nuclear receptor coactivator 1, sequence (P37231 whole entry): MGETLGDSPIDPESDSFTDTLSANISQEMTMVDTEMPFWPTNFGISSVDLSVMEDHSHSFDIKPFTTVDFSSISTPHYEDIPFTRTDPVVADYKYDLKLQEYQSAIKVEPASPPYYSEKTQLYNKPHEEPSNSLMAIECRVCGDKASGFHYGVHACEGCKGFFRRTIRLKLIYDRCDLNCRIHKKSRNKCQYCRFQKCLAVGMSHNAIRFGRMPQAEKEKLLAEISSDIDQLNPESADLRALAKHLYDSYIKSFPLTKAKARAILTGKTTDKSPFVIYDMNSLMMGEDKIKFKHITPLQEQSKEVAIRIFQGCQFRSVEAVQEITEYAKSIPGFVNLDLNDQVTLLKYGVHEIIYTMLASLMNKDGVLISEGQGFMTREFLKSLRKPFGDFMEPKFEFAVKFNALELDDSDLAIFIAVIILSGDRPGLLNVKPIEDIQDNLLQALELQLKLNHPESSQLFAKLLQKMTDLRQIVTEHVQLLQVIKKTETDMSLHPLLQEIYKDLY
Peroxisome proliferator-activated receptor gamma/Nuclear receptor coactivator 1, sequence (Q15788 whole entry, further chain): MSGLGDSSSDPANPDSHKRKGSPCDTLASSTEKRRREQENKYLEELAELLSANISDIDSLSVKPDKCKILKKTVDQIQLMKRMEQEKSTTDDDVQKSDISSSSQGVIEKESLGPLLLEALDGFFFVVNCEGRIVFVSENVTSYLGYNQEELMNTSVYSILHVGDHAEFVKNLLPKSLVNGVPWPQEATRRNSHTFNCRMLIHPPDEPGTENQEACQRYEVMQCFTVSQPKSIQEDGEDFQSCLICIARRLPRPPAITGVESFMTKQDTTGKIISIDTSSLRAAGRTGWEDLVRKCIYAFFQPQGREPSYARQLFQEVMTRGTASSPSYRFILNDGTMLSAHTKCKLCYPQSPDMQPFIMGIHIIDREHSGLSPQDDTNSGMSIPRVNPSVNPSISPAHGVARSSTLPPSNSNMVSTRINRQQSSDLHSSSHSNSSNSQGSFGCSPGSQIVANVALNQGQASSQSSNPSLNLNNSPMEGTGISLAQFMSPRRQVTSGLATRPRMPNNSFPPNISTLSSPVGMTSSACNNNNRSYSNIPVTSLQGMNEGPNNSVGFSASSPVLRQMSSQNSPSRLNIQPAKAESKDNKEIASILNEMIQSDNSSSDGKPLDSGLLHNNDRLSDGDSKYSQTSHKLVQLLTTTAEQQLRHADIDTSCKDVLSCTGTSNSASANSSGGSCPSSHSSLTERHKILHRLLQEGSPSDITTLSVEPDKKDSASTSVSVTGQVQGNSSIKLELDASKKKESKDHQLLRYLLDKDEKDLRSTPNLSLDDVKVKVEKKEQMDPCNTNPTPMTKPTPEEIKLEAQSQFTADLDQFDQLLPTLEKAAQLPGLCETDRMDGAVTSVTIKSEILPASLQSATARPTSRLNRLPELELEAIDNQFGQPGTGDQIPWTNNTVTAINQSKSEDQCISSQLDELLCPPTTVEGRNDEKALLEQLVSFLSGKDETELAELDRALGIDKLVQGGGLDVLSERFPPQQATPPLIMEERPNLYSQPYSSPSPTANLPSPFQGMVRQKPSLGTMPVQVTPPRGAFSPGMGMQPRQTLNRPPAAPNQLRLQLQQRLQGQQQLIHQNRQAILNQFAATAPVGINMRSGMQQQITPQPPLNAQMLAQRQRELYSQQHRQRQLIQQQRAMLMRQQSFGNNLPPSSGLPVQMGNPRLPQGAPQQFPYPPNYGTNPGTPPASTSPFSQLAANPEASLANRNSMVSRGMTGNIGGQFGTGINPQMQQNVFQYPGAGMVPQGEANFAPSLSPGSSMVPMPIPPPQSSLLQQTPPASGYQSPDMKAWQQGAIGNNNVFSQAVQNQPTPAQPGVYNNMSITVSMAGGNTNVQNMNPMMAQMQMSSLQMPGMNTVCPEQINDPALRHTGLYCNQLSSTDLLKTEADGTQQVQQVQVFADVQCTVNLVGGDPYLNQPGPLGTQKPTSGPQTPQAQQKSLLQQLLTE
Peroxisome proliferator-activated receptor gamma/Nuclear receptor coactivator 3, sequence (P37231 whole entry): as the sequence (P37231 whole entry) above
Peroxisome proliferator-activated receptor gamma/Nuclear receptor coactivator 3, sequence (Q9Y6Q9 whole entry, further chain): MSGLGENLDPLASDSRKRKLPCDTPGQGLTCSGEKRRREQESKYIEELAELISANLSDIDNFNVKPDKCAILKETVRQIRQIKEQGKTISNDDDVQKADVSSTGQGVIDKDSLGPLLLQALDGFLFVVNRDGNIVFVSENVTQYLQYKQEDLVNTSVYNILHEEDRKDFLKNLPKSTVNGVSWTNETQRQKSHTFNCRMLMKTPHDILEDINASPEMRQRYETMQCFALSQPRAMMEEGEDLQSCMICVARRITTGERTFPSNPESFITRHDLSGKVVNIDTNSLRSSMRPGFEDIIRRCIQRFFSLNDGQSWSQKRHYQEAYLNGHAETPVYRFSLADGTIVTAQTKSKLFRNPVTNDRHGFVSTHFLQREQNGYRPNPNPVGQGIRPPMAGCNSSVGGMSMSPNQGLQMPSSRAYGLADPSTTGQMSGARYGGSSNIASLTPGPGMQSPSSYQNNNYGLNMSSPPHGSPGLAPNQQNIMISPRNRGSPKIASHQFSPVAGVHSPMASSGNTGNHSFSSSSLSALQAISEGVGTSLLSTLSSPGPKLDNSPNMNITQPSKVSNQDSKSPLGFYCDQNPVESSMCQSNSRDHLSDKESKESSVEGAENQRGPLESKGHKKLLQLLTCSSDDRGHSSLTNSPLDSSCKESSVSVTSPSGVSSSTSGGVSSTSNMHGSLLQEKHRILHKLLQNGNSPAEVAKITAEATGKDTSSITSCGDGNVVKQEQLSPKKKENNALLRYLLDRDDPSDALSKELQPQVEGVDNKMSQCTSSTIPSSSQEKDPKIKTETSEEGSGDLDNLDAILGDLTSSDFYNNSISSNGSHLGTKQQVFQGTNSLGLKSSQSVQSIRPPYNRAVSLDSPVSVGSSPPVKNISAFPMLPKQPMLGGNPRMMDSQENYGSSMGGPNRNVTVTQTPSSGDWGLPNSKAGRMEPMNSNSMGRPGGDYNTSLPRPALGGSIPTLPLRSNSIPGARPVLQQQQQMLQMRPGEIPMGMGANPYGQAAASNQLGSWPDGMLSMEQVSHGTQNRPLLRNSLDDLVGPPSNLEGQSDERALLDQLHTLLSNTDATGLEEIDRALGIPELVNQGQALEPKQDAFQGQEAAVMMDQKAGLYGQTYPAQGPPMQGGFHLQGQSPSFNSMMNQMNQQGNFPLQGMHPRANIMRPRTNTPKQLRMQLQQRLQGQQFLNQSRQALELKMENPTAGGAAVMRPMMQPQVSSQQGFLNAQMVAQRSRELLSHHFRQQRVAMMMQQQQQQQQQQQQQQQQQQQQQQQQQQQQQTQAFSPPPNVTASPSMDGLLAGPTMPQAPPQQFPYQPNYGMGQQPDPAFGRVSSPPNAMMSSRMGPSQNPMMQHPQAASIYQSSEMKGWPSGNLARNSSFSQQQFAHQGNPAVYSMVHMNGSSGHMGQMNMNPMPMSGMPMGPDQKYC

Regarding `CCCC(=O)Nc1c2c(nc3ccccc13)N(c1ccccc1)CC2`, the EC50 – broadly, the concentration that produces a half-maximal response – in assay [1] is > 79.4 µM (inactive); in assay [2], > 79.4 µM (not active); in [3], > 79.4 µM (not active).
As to `COc1ccc(-c2cc(C(=O)Nc3ccc(S(=O)(=O)Nc4onc(C)c4C)cc3)c3ccccc3n2)cc1`, the EC50 (in assay [4]; at Cannabinoid receptor 1 [5]; on Cannabinoid receptor 2 [10]) was > 32 µM (inactive) each time. The IC50 in assay [6] is > 32 µM (inactive); at Cannabinoid receptor 1 [7], 16.9 µM (inactive); in assay [8] it was 18.2 µM (inactive); on Cannabinoid receptor 2 [9], > 32 µM (inactive); in assay [11] it was 5.33 µM (active); in [12], 17.3 µM (active).
As for `O=C(NN1C(=O)/C(=C/c2nc3ccccc3[nH]2)SC1=S)c1cccc(Cl)c1`, the EC50 in assay [1] is > 79.4 µM (inactive); in [2], > 79.4 µM (not active); in assay [3], > 79.4 µM (not active); in [13] it was 7.01 µM (active).
As for `CC(C)(C)c1ccc(-c2c(-c3nc4ccccc4[nH]3)n[nH]c2-c2ccccc2)cc1`, the EC50 (in assay [4]; on Cannabinoid receptor 1 [5]; on Cannabinoid receptor 2 [10]) was > 32 µM (inactive) throughout. The IC50 is > 32 µM (inactive) in assay [6], 0.474 µM (active) at Cannabinoid receptor 1 [7], 11.7 µM (inactive) in assay [8] and 13.9 µM (inactive) on Cannabinoid receptor 2 [9].
As to `O=C1c2cccc3cc([N+](=O)[O-])cc(c23)C(=O)N1CCN1CCCC1` [PINAFIDE], the EC50 was 3.11 µM (active) in assay [14]; 5.47 µM (inconclusive) in the assay on BJ [15]; 9.59 µM (active) with BJ [16]; > 5.53 µM (not active) in [17]; > 150 µM (inconclusive) in the assay on BJ [18]; 5.03 µM (inconclusive) in assay [19]. For the same compound, the EC50 in the assay with BJ [21] is 0.478 µM (active). The IC50 in [20] is > 80 µM (inactive); in assay [22], > 66 µM (inactive); in assay [23], 44.7 µM (inactive); in assay [27], > 67.5 µM (inactive). The AC50 – broadly, the midpoint of the concentration-response curve, whichever way the signal moves – was 16 µM (inactive) in assay [24], 2.94 µM (active) in [25], 8.44 µM (active) in assay [26] and 0.87 µM (active) at Paired box protein Pax-8.
